In PubChem BioAssay (NCI):
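How tested: cells in 96-well plates exposed to compound for 48 hours at five concentrations. GI50 = concentration required for 50% inhibition of growth. TGI: concentration producing complete growth inhibition.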

Test system: TK-10 renal
Experiment: DTP human tumour cell line panel, 48 h

`CCc1cccc(C)c1NC(=O)CC1C(=O)Nc2ccccc2S1=O` (centres undefined) and `Cc1ccc2c(c1-c1ccccc1)C(=O)OC2` cannot be ordered by TGI: over 100 µM for the first, over 100 µM for the second.

`Cc1ccc(N2C(=O)N(c3ccc(C)cc3)C3(SC=NN3C)C2=O)cc1` (centres undefined) and `O=C1c2ccc3c4ccccc4n(-c4ccccc4)c3c2C(=O)N1c1ccc(Cl)cc1` cannot be ordered by TGI: over 100 µM for the first, over 100 µM for the second.

`NC(CCc1ncc(C(=O)O)s1)C(=O)O` (centres undefined) and `NCCN.O=C([O-])[O-].O=C([O-])[O-].[Co+3].[K+]` cannot be ordered by TGI: over 100 µM for the first, over 100 µM for the second.

`CSc1ccc2c(cc1=O)[C@@H](NC(=O)c1cc(O)c(O)c(O)c1)CCc1cc(O)c(O)c(O)c1-2` and `O=C(N/N=C/c1ccc(O)cc1O)c1cccnc1` cannot be ordered by TGI: over 100 µM for the first, over 100 µM for the second.

Going from `CNCCn1c(=O)c2cc(OC)c(OC)cc2c2cnc3cc4c(cc3c21)OCO4` to `COc1ccc(-c2noc(N)c2-c2cc(OC)c3c(c2)OCO3)cc1`, the TGI rises from 2.16 µM to over 100 µM.

Compared with `COc1cc(-c2nnc3n2NC=C(C(=O)O)S3)cc(OC)c1OC`, `COc1cc2c(cc1OC)C1Cc3cc(OC)c(OC)cc3N1CC2` (centres undefined) is lower in TGI: over 100 µM for the first, 50.5 µM for the second.

`C[P+](C)(C)c1ccccc1` and `CC1CCC(C(C)(C)c2ccccc2)C(=O)C1` (centres undefined) cannot be ordered by TGI: over 100 µM for the first, over 100 µM for the second.

`O=C1c2ccccc2C(=O)N1C/C=N/NS(=O)(=O)c1ccc(Br)cc1` and `Nc1ccc(C2=N/C(=C\c3cccc(N)c3)C(=O)O2)cc1` cannot be ordered by TGI: over 100 µM for the first, over 100 µM for the second.

Compared with `NC(=O)c1cn(Cc2ccccc2)c(=O)n1Cc1ccccc1`, `C1=NC(N(Cc2ccccc2)Cc2ccccc2)N(Cc2ccccc2)N1` (centres undefined) is lower in TGI: over 100 µM for the first, 86.4 µM for the second.

Going from `CCOC(=O)C(C)(c1c(C)[nH]c2ccccc12)c1c(C)[nH]c2ccccc12` to `CCOc1ccc(N=Cc2c3ccccc3nc3ccccc23)cc1`, the TGI rises from 45.6 µM to over 100 µM.

`Cc1c(Cl)cccc1NC(=O)c1cccc([N+](=O)[O-])c1O` and `CC1(C)N=C(N)N=C(N)N1c1cccc(OCCOc2cccc([N+](=O)[O-])c2)c1` cannot be ordered by TGI: over 100 µM for the first, over 100 µM for the second.

`CC1COS(=O)O1` (centres undefined) and `CCOC(=O)C1=C(Nc2ccc(Br)cc2)OCC1=O` cannot be ordered by TGI: over 100 µM for the first, over 100 µM for the second.

Compared with `O=C(NC1CCCCC1)c1ccc(Nc2ncnc3c2cnn3-c2ccccc2)cc1`, `O=C1/C(=C/N2N=C(c3ccc4ccccc4c3)CC2c2ccccc2O)SC(=S)N1c1cccnc1` (centres undefined) is higher in TGI: 49.5 µM for the first, over 100 µM for the second.

`O=C1CC2CCN(C(=O)c3ccccc3)CC2CCN1` (centres undefined) and `C=CCC1(C)CCCCC1(O)CS(=O)c1ccccc1` (centres undefined) cannot be ordered by TGI: over 100 µM for the first, over 100 µM for the second.

`N#CC(C#N)=C1CCCOc2c1ccc1ccccc21` and `N#Cc1c(-c2ccco2)cc(-c2ccc(N)cc2)[nH]c1=O` cannot be ordered by TGI: over 100 µM for the first, over 100 µM for the second.

First: O=C1C=CC(=CC=C2C=CN(CCCCCCCCCCC(=O)NCCCCCCCCCCCC(=O)O)C=C2)C=C1
Second: O=C(Nc1ccc(Cl)cc1)Nc1nccs1
The TGI of the first is higher: over 100 µM for the first, 93.1 µM for the second.

`C1COCCSC2=C(SCCO1)SC(=C1SC3=C(SCCOCCOCCS3)S1)S2` and `COc1cc(/C=N\O[Si](C)(C)C(C)(C)C)ccc1O[Si](C)(C)C(C)(C)C` cannot be ordered by TGI: over 100 µM for the first, over 100 µM for the second.

`CC12CCC(=O)N1c1cccnc1N2` (centres undefined) and `O=C(NNc1cnccn1)c1nc2cc(F)ccc2n2cccc12` cannot be ordered by TGI: over 100 µM for the first, over 100 µM for the second.

Work on `O=C1C2[C@@H](C(=O)N1c1ccc(Br)cc1)C13C(=CC2([N+](=O)[O-])[C@@H]2C(=O)N(c4ccc(Br)cc4)C(=O)[C@@H]21)c1ccccc1N3c1ccccc1` (some centres undefined) yielded a TGI of over 100 µM.

First: CNCCn1c(=O)c2cc(OC)c(OC)cc2c2cnc3cc4c(cc3c21)OCO4
Second: COc1ccc(-c2noc(N)c2-c2cc(OC)c3c(c2)OCO3)cc1
The GI50 of the first is 170-fold lower: 0.0465 µM for the first, 7.8 µM for the second.

Going from `CC1(C)N=C(N)N=C(N)N1c1cccc(OCCOc2cccc([N+](=O)[O-])c2)c1` to `COc1cc(C(=O)O[C@H](C(N)=O)[C@]2(C)CO2)c2cccc(C)c2c1`, the GI50 falls from 66 µM to under 0.0406 µM.

First: O=C(NC1CCCCC1)c1ccc(Nc2ncnc3c2cnn3-c2ccccc2)cc1
Second: O=C1/C(=C/N2N=C(c3ccc4ccccc4c3)CC2c2ccccc2O)SC(=S)N1c1cccnc1 (centres undefined)
The GI50 of the first is 9-fold higher: 16.5 µM for the first, 1.84 µM for the second.

First: N#CC(C#N)=C1CCCOc2c1ccc1ccccc21
Second: O=C(Nc1ccc(Cl)cc1)Nc1nccs1
The GI50 of the first is 4.2-fold higher: 42.9 µM for the first, 10.2 µM for the second.

Going from `O=C(N/N=C/c1ccc(O)cc1O)c1cccnc1` to `O=C(NNc1cnccn1)c1nc2cc(F)ccc2n2cccc12`, the GI50 falls from 2.52 µM to 0.647 µM (3.9-fold).

In the case of `NCCN.O=C([O-])[O-].O=C([O-])[O-].[Co+3].[K+]`, the GI50 is reported as over 100 µM.

Test system: NCI-H226 lung
Experiment: DTP human tumour cell line panel, 48 h

`CCc1cccc(C)c1NC(=O)CC1C(=O)Nc2ccccc2S1=O` (centres undefined) and `Cc1ccc2c(c1-c1ccccc1)C(=O)OC2` cannot be ordered by TGI: over 100 µM for the first, over 100 µM for the second.

`Cc1ccc(N2C(=O)N(c3ccc(C)cc3)C3(SC=NN3C)C2=O)cc1` (centres undefined) and `O=C1c2ccc3c4ccccc4n(-c4ccccc4)c3c2C(=O)N1c1ccc(Cl)cc1` cannot be ordered by TGI: over 100 µM for the first, over 100 µM for the second.

Going from `CCC[CH2][Sn]1([CH2]CCC)[O]CC(COc2c(Cl)cc(Cl)cc2Cl)[O]1` (centres undefined) to `CCOC(=O)C1=C(Nc2ccc(Br)cc2)OCC1=O`, the TGI rises from 3.82 µM to over 100 µM.

Compared with `NC(CCc1ncc(C(=O)O)s1)C(=O)O` (centres undefined), `O=C(Nc1ccc(Cl)cc1)Nc1nccs1` is lower in TGI: over 100 µM for the first, 57 µM for the second.

Going from `CSc1ccc2c(cc1=O)[C@@H](NC(=O)c1cc(O)c(O)c(O)c1)CCc1cc(O)c(O)c(O)c1-2` to `O=C(N/N=C/c1ccc(O)cc1O)c1cccnc1`, the TGI rises from 35 µM to 84.3 µM (2.4-fold).

First: COc1cc(-c2nnc3n2NC=C(C(=O)O)S3)cc(OC)c1OC
Second: COc1cc2c(cc1OC)C1Cc3cc(OC)c(OC)cc3N1CC2 (centres undefined)
The TGI of the first is higher: over 100 µM for the first, 47.9 µM for the second.

`C[P+](C)(C)c1ccccc1` and `C=CCC1(C)CCCCC1(O)CS(=O)c1ccccc1` (centres undefined) cannot be ordered by TGI: over 100 µM for the first, over 100 µM for the second.

`O=C1c2ccccc2C(=O)N1C/C=N/NS(=O)(=O)c1ccc(Br)cc1` and `CCOc1ccc(N=Cc2c3ccccc3nc3ccccc23)cc1` cannot be ordered by TGI: over 100 µM for the first, over 100 µM for the second.

`COc1ccc(-c2noc(N)c2-c2cc(OC)c3c(c2)OCO3)cc1` and `N#Cc1c(-c2ccco2)cc(-c2ccc(N)cc2)[nH]c1=O` cannot be ordered by TGI: over 100 µM for the first, over 100 µM for the second.

Compared with `NC(=O)c1cn(Cc2ccccc2)c(=O)n1Cc1ccccc1`, `C1=NC(N(Cc2ccccc2)Cc2ccccc2)N(Cc2ccccc2)N1` (centres undefined) is lower in TGI: over 100 µM for the first, 33.5 µM for the second.

Compared with `CCOC(=O)C(C)(c1c(C)[nH]c2ccccc12)c1c(C)[nH]c2ccccc12`, `Cc1c(Cl)cccc1NC(=O)c1cccc([N+](=O)[O-])c1O` is 1.7-fold higher in TGI: 32.9 µM for the first, 56.3 µM for the second.

`CC1COS(=O)O1` (centres undefined) and `CC12CCC(=O)N1c1cccnc1N2` (centres undefined) cannot be ordered by TGI: over 100 µM for the first, over 100 µM for the second.

`CC1(C)N=C(N)N=C(N)N1c1cccc(OCCOc2cccc([N+](=O)[O-])c2)c1` and `O=C(NNc1cnccn1)c1nc2cc(F)ccc2n2cccc12` cannot be ordered by TGI: over 100 µM for the first, over 100 µM for the second.

Going from `O=C(NC1CCCCC1)c1ccc(Nc2ncnc3c2cnn3-c2ccccc2)cc1` to `O=C1/C(=C/N2N=C(c3ccc4ccccc4c3)CC2c2ccccc2O)SC(=S)N1c1cccnc1` (centres undefined), the TGI rises from 21.5 µM to over 100 µM.

`O=C1CC2CCN(C(=O)c3ccccc3)CC2CCN1` (centres undefined) and `CC(=O)[CH-]C(=O)c1ccccc1.CC(=O)[CH-]C(=O)c1ccccc1.O=S(=O)([O-])c1cc([O-])c2c([O-])cc(S(=O)(=O)[O-])cc2c1.[Na+].[Ti+4]` cannot be ordered by TGI: over 100 µM for the first, over 100 µM for the second.

`O=C1C=CC(=CC=C2C=CN(CCCCCCCCCCC(=O)NCCCCCCCCCCCC(=O)O)C=C2)C=C1` and `O=C1C2[C@@H](C(=O)N1c1ccc(Br)cc1)C13C(=CC2([N+](=O)[O-])[C@@H]2C(=O)N(c4ccc(Br)cc4)C(=O)[C@@H]21)c1ccccc1N3c1ccccc1` (some centres undefined) cannot be ordered by TGI: over 100 µM for the first, over 100 µM for the second.

`C1COCCSC2=C(SCCO1)SC(=C1SC3=C(SCCOCCOCCS3)S1)S2` showed a TGI of over 100 µM.

Going from `CCC[CH2][Sn]1([CH2]CCC)[O]CC(COc2c(Cl)cc(Cl)cc2Cl)[O]1` (centres undefined) to `COc1ccc(-c2noc(N)c2-c2cc(OC)c3c(c2)OCO3)cc1`, the GI50 rises from 1.82 µM to 18 µM (9.9-fold).

First: CC1(C)N=C(N)N=C(N)N1c1cccc(OCCOc2cccc([N+](=O)[O-])c2)c1
Second: O=C(NNc1cnccn1)c1nc2cc(F)ccc2n2cccc12
The GI50 of the first is 31-fold higher: 48.6 µM for the first, 1.57 µM for the second.

`O=C(NC1CCCCC1)c1ccc(Nc2ncnc3c2cnn3-c2ccccc2)cc1` and `O=C1/C(=C/N2N=C(c3ccc4ccccc4c3)CC2c2ccccc2O)SC(=S)N1c1cccnc1` (centres undefined) are within 1.5-fold of each other in GI50: 3.35 µM for the first, 4.9 µM for the second.

`O=C(Nc1ccc(Cl)cc1)Nc1nccs1` and `O=C(N/N=C/c1ccc(O)cc1O)c1cccnc1` are within 1.5-fold of each other in GI50: 4.46 µM for the first, 4.58 µM for the second.

`CC(=O)[CH-]C(=O)c1ccccc1.CC(=O)[CH-]C(=O)c1ccccc1.O=S(=O)([O-])c1cc([O-])c2c([O-])cc(S(=O)(=O)[O-])cc2c1.[Na+].[Ti+4]` was tested, and the GI50 was 47.5 µM.

Test system: EKVX NSCLC
Experiment: DTP human tumour cell line panel, 48 h

`Cc1ccc(N2C(=O)N(c3ccc(C)cc3)C3(SC=NN3C)C2=O)cc1` (centres undefined) and `O=C1c2ccc3c4ccccc4n(-c4ccccc4)c3c2C(=O)N1c1ccc(Cl)cc1` cannot be ordered by TGI: over 100 µM for the first, over 100 µM for the second.

First: Cc1ccc2c(c1-c1ccccc1)C(=O)OC2
Second: NC(=O)c1cn(Cc2ccccc2)c(=O)n1Cc1ccccc1
The TGI of the first is lower: 43.4 µM for the first, over 100 µM for the second.

First: CCC[CH2][Sn]1([CH2]CCC)[O]CC(COc2c(Cl)cc(Cl)cc2Cl)[O]1 (centres undefined)
Second: N#CC(C#N)=C1CCCOc2c1ccc1ccccc21
The TGI of the first is lower: 17.3 µM for the first, over 100 µM for the second.

`NC(CCc1ncc(C(=O)O)s1)C(=O)O` (centres undefined) and `O=C1CC2CCN(C(=O)c3ccccc3)CC2CCN1` (centres undefined) cannot be ordered by TGI: over 100 µM for the first, over 100 µM for the second.

First: CSc1ccc2c(cc1=O)[C@@H](NC(=O)c1cc(O)c(O)c(O)c1)CCc1cc(O)c(O)c(O)c1-2
Second: Cc1c(Cl)cccc1NC(=O)c1cccc([N+](=O)[O-])c1O
The TGI of the first is lower: 56.7 µM for the first, over 87.6 µM for the second.

`COc1cc(-c2nnc3n2NC=C(C(=O)O)S3)cc(OC)c1OC` and `CCOC(=O)C(C)(c1c(C)[nH]c2ccccc12)c1c(C)[nH]c2ccccc12` cannot be ordered by TGI: over 100 µM for the first, over 100 µM for the second.

`C[P+](C)(C)c1ccccc1` and `CC1CCC(C(C)(C)c2ccccc2)C(=O)C1` (centres undefined) cannot be ordered by TGI: over 100 µM for the first, over 100 µM for the second.

`O=C1c2ccccc2C(=O)N1C/C=N/NS(=O)(=O)c1ccc(Br)cc1` and `O=C1C=CC(=CC=C2C=CN(CCCCCCCCCCC(=O)NCCCCCCCCCCCC(=O)O)C=C2)C=C1` cannot be ordered by TGI: over 100 µM for the first, over 100 µM for the second.

Compound `CC1COS(=O)O1` (centres undefined) has a TGI of over 100 µM.

First: CCC[CH2][Sn]1([CH2]CCC)[O]CC(COc2c(Cl)cc(Cl)cc2Cl)[O]1 (centres undefined)
Second: N#CC(C#N)=C1CCCOc2c1ccc1ccccc21
The GI50 of the first is 8.5-fold lower: 5.51 µM for the first, 46.8 µM for the second.
